Laboratory results as given in patent US7973047B2, “Beta-Secretase modulators and methods of use” (Amgen Inc., priority 2010, dated 2011).
Where two headings read alike, the source gives them in different places.

Test system: Aβ40 in conditioned medium of cells stably expressing Amyloid Precursor Protein (APP)
Test: BACE cell-based assay: Aβ40 in conditioned medium by sandwich ELISA
Details: unit inferred, read-out: Cell Assay
How it was run: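 APP-stable cells grown 24 h in DMEM/10% FBS, then exposed to compounds for 24 h in a 10-point dose series starting at 100 or 10 μM, 0.1% DMSO final. Medium Aβ40 measured by pAb40/biotinylated 6E10 sandwich ELISA with Europium time-resolved fluorescence; IC50 from percent inhibition.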

[1] = cell based assay data of Table 4

IC50 [1] | IC50 (cell based assay data, Table 4) | Compound
 | 503 nM | N-((1S,2R)-3-(((4′S)-6′-bromo-3′,4′-dihydrospiro[cyclobutane-1,2′-pyrano[2,3-b]pyridin]-4′-yl)amino)-1-((4-fluorophenyl)methyl)-2-hydroxypropyl)acetamide [compound 843]
 | 17.9 nM | CC(=O)N[C@@H](Cc1cc(F)cc(N(C)C)c1)[C@H](O)CN[C@H]1CC2(CCC2)Oc2ncc(CC(C)(C)C)cc21 [compound 759]
 | 2630 nM | CC(=O)N[C@@H](CC1CCCN(C)C1)[C@H](O)CN[C@H]1CC2(CCC2)Oc2ncc(CC(C)(C)C)cc21 (stereo partly shown) [compound 829]
 | 9.28 nM | COc1ccc(C[C@H](NC(C)=O)[C@H](O)CN[C@H]2CC3(CCC3)Oc3ncc(CC(C)(C)C)cc32)cc1OC [compound 832]
 | 3.58 nM | CC(=O)N[C@@H](Cc1cc(F)cc(Cl)c1)[C@H](O)CN[C@H]1CC2(CCC2)Oc2ncc(CC(C)(C)F)cc21 [compound 837]
 | 40.1 nM | CC(=O)N[C@@H](Cc1ccc(F)c(F)c1)[C@H](O)CN[C@H]1CC(C)(C)Oc2c1cc(CC(C)(C)C)nc2N1CCCC1 [compound 758]
 | 83.3 nM | CC(=O)N[C@@H](Cc1ccccc1)[C@H](O)CN[C@H]1CC2(CCC2)Oc2ccc(-c3cccs3)cc21 [compound 778]
 | 20.3 nM | CC(=O)N[C@@H](Cc1cc(F)cc(Cl)c1)[C@H](O)CN[C@H]1CC2(CCC2)Oc2cnc(CC(C)(C)C)cc21 [compound 750]
 | 452 nM | CC(=O)N[C@@H](Cc1cc(F)cc(F)c1)[C@H](O)CN[C@H]1CC2(CCC2)Oc2cc(F)c(NC3CCOCC3)cc21 [compound 806]
 | 325 nM | CCc1cnc2c(c1)[C@@H](NC[C@@H](O)[C@H](Cc1cc(F)cc(F)c1)NC(=O)OC)CC1(CCC1)O2 [compound 875]
 | 11.3 nM | CCC(=O)N[C@@H](Cc1cc(F)cc(Cl)c1)[C@H](O)CN[C@H]1CC(C)(C)Oc2cnc(CC(C)(C)C)cc21 [compound 797]
 | 84.8 nM | CC(=O)N[C@@H](Cc1ccccc1)[C@H](O)CN[C@H]1CC2(CCC2)Oc2ncc(CC(F)(F)F)cc21 [compound 841, N-((1S,2R)-2-hydroxy-1-(phenylmethyl)-3-(((4′S)-6′-(2,2,2-trifluoroethyl)-3′,4′-dihydrospiro[cyclobutane-1,2′-pyrano[2,3-b]pyridin]-4′-yl)amino)propyl)acetamide]
 | 2.32 nM | CC(=O)N[C@@H](Cc1cccnc1)[C@H](O)CN[C@H]1CC2(CCC2)Oc2ncc(CC(C)(C)C)cc21 [compound 824, N-((1S,2R)-3-(((4′S)-6′-(2,2-dimethylpropyl)-3′,4′-dihydrospiro[cyclobutane-1,2′-pyrano[2,3-b]pyridin]-4′-yl)amino)-2-hydroxy-1-(3-pyridinylmethyl)propyl)acetamide]
 | 1830 nM | CC(=O)N[C@@H](Cc1cccc(F)c1)[C@H](O)CN[C@H]1CC2(CCC2)Oc2ncc(C(O)C(C)C(F)(F)F)cc21 (stereo partly shown) [compound 863]
 | 3.63 nM | CC(=O)N[C@@H](Cc1cccc(F)c1)[C@H](O)CN[C@H]1CC2(CCC2)Oc2ncc(CC(C)C)cc21 [compound 844]
 | 571 nM | CC(=O)N[C@@H](Cc1cc(F)cc(F)c1)[C@H](O)CN[C@H]1CC2(CCC2)Oc2cc(F)c(Br)cc21 [compound 801]
 | 803 nM | CC(=O)N[C@@H](Cc1cc(F)cc(F)c1)[C@H](O)CN[C@H]1CC2(CCC2)Oc2ccc(-n3nccn3)cc21 [compound 791]
 | 1650 nM | CC(=O)N[C@@H](Cc1cc(F)cc(F)c1)[C@H](O)CN[C@H]1CC2(CCC2)Oc2ccc(-c3ccn(CC(C)C)n3)cc21 [compound 780]

Continued, compound first:

Compound | IC50 [1] | IC50 (cell based assay data, Table 4)
CC(=O)N[C@@H](Cc1cc(F)cc(F)c1)[C@H](O)CN[C@H]1CC2(CCCC2)Oc2ncc(CC(C)(C)C)cc21 [compound 548] | 2.83 nM | 
CC(=O)N[C@@H](Cc1ccc(N(C)C)cc1)[C@H](O)CN[C@H]1CC2(CCC2)Oc2c1cc(CC(C)(C)C)nc2N(C)C [compound 599] | 167 nM | 
CC(=O)N[C@@H](Cc1ccccc1)[C@H](O)CN[C@H]1CC2(CCC2)Oc2ccc(-c3cn(C)nn3)cc21 [compound 521] | ≥ 10000 nM | 
CC(=O)N[C@@H](Cc1ccc(Cl)cc1)[C@H](O)CN[C@H]1C[C@@]2(CC[C@H]2C)Oc2ncc(CC(C)(C)C)cc21 [compound 622] | ≥ 10000 nM | 
CCNc1cc(C[C@H](NC(C)=O)[C@H](O)CN[C@H]2CC3(CCC3)Oc3ncc(CC(C)(C)C)cc32)ccc1F [compound 710] | 4.25 nM | 
CC(=O)N[C@@H](Cc1cccc(C(F)(F)F)c1)[C@H](O)CN[C@H]1CC2(CCC2)Oc2ncc(CC(C)C)cc21 [compound 719] |  | 9.35 nM
CC(=O)N[C@@H](Cc1ccccc1)[C@H](O)CN[C@H]1CC2(CCC2)Oc2ncc(CC(C)C)cc21 [compound 523] | 4.09 nM | 
COC1CN(c2nc(CC(C)(C)C)cc3c2OC2(CCC2)C[C@@H]3NC[C@@H](O)[C@H](Cc2ccc(F)cc2)NC(C)=O)C1 [compound 614] | 59 nM | 
CC(=O)N[C@@H](Cc1ccc(F)cc1)[C@H](O)CN[C@H]1CC2(CCC2)Oc2cnc(CC(C)(C)C)cc21 [compound 570] | 22.1 nM | 
CC(C)(C)Cc1cnc2c(c1)[C@@H](NC[C@@H](O)[C@H](Cc1ccc(F)cc1)NC(=O)C(F)(F)F)CC1(CCC1)O2 [compound 631] | 57 nM | 
CC(=O)N[C@@H](Cc1ccccc1)[C@H](O)CN[C@H]1CC2(CCC2)Cc2ncc(C)cc21 [compound 541, N-((1S,2R)-2-hydroxy-3-(((5′S)-3′-methyl-5′,8′-dihydro-6′H-spiro[cyclobutane-1,7′-quinolin]-5′-yl)amino)-1-(phenylmethyl)propyl)acetamide] | 651 nM | 
CCC(CC)Cc1cnc2c(c1)[C@@H](NC[C@@H](O)[C@H](Cc1cc(F)cc(F)c1)NC(C)=O)CC1(CCC1)O2 [compound 691] | 95.8 nM | 
COc1cc(C[C@H](NC(C)=O)[C@H](O)CN[C@H]2CC3(CCC3)Oc3ncc(CC(C)(C)C)cc32)ccc1Cl [compound 721] |  | 21.4 nM
CC(=O)N[C@@H](Cc1ccc(F)cc1)[C@H](O)CN[C@H]1CC2(CCC2)Oc2ncc(C=C(C)C)cc21 [compound 696] | 254 nM | 
CC(=O)N[C@@H](Cc1cc(F)cc(Cl)c1)[C@H](O)CN[C@H]1CC2(CCC2)Oc2ncc(CC(C)(C)C)cc21 [compound 567] | 3.27 nM | 
CC(=O)N[C@@H](Cc1cc(F)cc(F)c1)[C@H](O)CN[C@H]1CC2(CCC2)Oc2ncc(-n3ccnc3)cc21 [compound 747] |  | 498 nM
COC(=O)N[C@@H](Cc1ccc(F)cc1)[C@H](O)CN[C@H]1CC2(CCC2)Oc2ncc(CC(C)(C)C)cc21 [compound 577] | 60 nM | 

Compound | IC50 [1] | IC50 (cell based assay data, Table 4)
CCc1cc(NC)c2c(c1)[C@@H](NC[C@@H](O)[C@H](Cc1ccccc1)NC(C)=O)CC(C)(C)O2 [compound 535] | 924 nM | 
CC(=O)N[C@@H](Cc1ccc(F)cc1)[C@H](O)CN[C@H]1CC2(CCC2)Oc2c1cc(CC(C)(C)C)nc2Cl [compound 583] | 112 nM | 
CC(=O)N[C@@H](Cc1cccc(F)c1)[C@H](O)CN[C@H]1CC2(CCC2)Oc2c1cc(CC(C)(C)C)nc2NC1CC1 [compound 602] | 2.89 nM | 
CC(=O)N[C@@H](Cc1ccc(Cl)c(Cl)c1)[C@H](O)CN[C@H]1CC2(CCC2)Oc2ncc(CC(C)(C)C)cc21 [compound 711, N-((1S,2R)-1-((3,4-dichlorophenyl)methyl)-3-(((4′S)-6′-(2,2-dimethylpropyl)-3′,4′-dihydrospiro[cyclobutane-1,2′-pyrano[2,3-b]pyridin]-4′-yl)amino)-2-hydroxypropyl)acetamide] | 29.6 nM | 
CC(=O)N[C@@H](Cc1ccccc1)[C@H](O)CN[C@H]1CC(C)(C)Nc2ccc(CC(C)(C)C)cc21 [compound 692] | 30.6 nM | 
CC(=O)N[C@@H](Cc1ccccc1)[C@H](O)CN[C@H]1CC2(CCC2)Oc2cnc(CC(C)(C)C)cc21 [compound 749] |  | 14 nM
CC(=O)N[C@@H](Cc1cccc(F)c1F)[C@H](O)CN[C@H]1CC2(CCC2)Oc2c1cc(CC(C)(C)C)nc2N(C)C [compound 601] | 227 nM | 
CC(=O)N[C@@H](Cc1ccc(F)cc1)[C@H](O)CN[C@H]1CC2(CCC2)Oc2c1cc(CC(C)(C)C)nc2NC(C)C [compound 585] | 22.3 nM | 
CC(=O)N[C@@H](Cc1cccc(F)c1)[C@H](O)CN[C@H]1CC2(CCC2)Oc2cnc(CC(C)(C)C)cc21 [compound 569] | 5.22 nM | 
CC(=O)N[C@@H](Cc1ccc(Cl)c(F)c1)[C@H](O)CN[C@H]1CC2(CCC2)Oc2ncc(CC(C)(C)C)cc21 [compound 720] |  | 8.57 nM
CN(C)CC(=O)N[C@@H](Cc1cccc(C#N)c1)[C@H](O)CN[C@H]1CC(C)(C)Oc2ccc(Br)cc21 [compound 528] | 1120 nM | 
CC(=O)N[C@@H](Cc1ccc(Cl)cc1)[C@H](O)CN[C@H]1C[C@]2(C[C@H](C)C2)Oc2ncc(CC(C)(C)C)cc21 [compound 714, N-((1S,2R)-1-((4-chlorophenyl)methyl)-3-(((1s,3R,4′S)-6′-(2,2-dimethylpropyl)-3-methyl-3′,4′-dihydrospiro[cyclobutane-1,2′-pyrano[2,3-b]pyridin]-4′-yl)amino)-2-hydroxypropyl)acetamide] |  | 26.7 nM
CC(=O)N[C@@H](Cc1ccc(F)cc1)[C@@H](O)CN[C@H]1CC2(CCC2)Oc2ncc(CC(C)(C)F)cc21 [compound 574] | 111 nM | 
CC(=O)N[C@@H](Cc1ccc(Cl)cc1)[C@H](O)CN[C@H]1CC2(CC2)Oc2ncc(CC(C)(C)C)cc21 [compound 580] | 120 nM | 
CC(=O)N[C@@H](Cc1ccnc(OC(F)F)c1)[C@H](O)CN[C@H]1CC2(CCC2)Oc2ncc(CC(C)(C)C)cc21 [compound 726, N-((1S,2R)-1-((2-((difluoromethyl)oxy)-4-pyridinyl)methyl)-3-(((4′S)-6′-(2,2-dimethylpropyl)-3′,4′-dihydrospiro[cyclobutane-1,2′-pyrano[2,3-b]pyridin]-4′-yl)amino)-2-hydroxypropyl)acetamide] |  | 9.72 nM
CC(=O)N[C@@H](Cc1cccc(F)c1)[C@H](O)CN[C@H]1CC2(CCC2)Oc2c1cc(CC(C)(C)C)nc2N(C)C [compound 593] | 23.6 nM | 
CC(=O)N[C@@H](Cc1ccc(F)cc1)[C@H](O)CN[C@@H]1c2cc(CC(C)(C)C)cnc2N2CCC[C@@H]12 [compound 683] | 524 nM | 
